The values below come from US20050215548A1 (Cyclacel Limited, priority 2002, published 2005).

Data set [1] addresses T1, HDM2 (Homo sapiens, UniProt Q00987).
T1 construct: Recombinant HDM2 (1.5 μg per well) in TBS-BSA buffer
Kind of data set: Fluorescence polarisation competitive HDM2 binding assay. How it is done: This was carried out using a 96-well microtiter plate (Costar) format. Recombinant HDM2 (1.5 μg per well) in TBS-BSA buffer (50 mM Tris pH 7.4, 150 mM NaCl, and 0.1% BSA) was incubated for 5 min at room temperature in the presence of serially diluted test compound (in TBS-BSA buffer with a final concentration of 5% DMSO). Fluorescently labelled p53-derived peptide (fluorescein-[…]NH2, 0.2 μM) was added to each well and the plate was incubated at room temperature for 45 min. The fluorescence polarisation (excitation 485 nm, emission 520 nm) of the peptide was measured. IC50 values were calculated from dose-response curves.
(§1) The fluorescence polarisation competitive HDM2 binding assay described in Example 3 was used. Furthermore, the anti-proliferative potency of the compounds against three human tumour cell lines with different genetic make-up was also determined. […] The cell lines used were as follows: AGS, gastric adenocarcinoma, wild-type p53; H1299, large cell lung carcinoma, p53 null, low HDM2; SJSA-1, primitive multipotential bone sarcoma, wild-type p53, overexpressed HDM2.
In general terms: In fluorescence polarisation assays a small probe gives low polarisation when free and higher when bound to something large.

Data set [2] concerns p53. The data set is described as follows: p53 reporter gene assay (U2OS-derived luciferase reporter cell line). The settings on record: for Fold induction of luciferase activity: compared to basal luciferase activity, 16-h time point, at concentration of maximal induction; for Concentration (test compound concentration at which the p53 induction was maximal): p53 reporter, U2OS-derived cell line. For orientation: Reporter assays use an easily measured gene product as a stand-in for the process of interest.

For data set [3], the system named is AGS. The data set is described as follows: 72-h MTT cytotoxicity assay, AGS. Conditions: Homo sapiens, 72-h MTT, Table 1, read-out: IC50 Anti-proliferative effect on cell line AGS. Type of data set: cell-based. The method, then: as §1
Representative bisarylsulfonamide compounds were tested on a panel of transformed and non-transformed human cell lines, using a standard 72-h MTT cytotoxicity assay [Haselsberger K et al, ibid].
For orientation: Tetrazolium dyes change colour on reduction, which living cells bring about.

[4] abbreviates: fluorescence polarisation assay, Table 3, read-out: In vitro competitive HDM2 binding assay IC50.
Setting [5] is: fluorescence polarisation format, Table 1, read-out: IC50 In vitro competitive HDM2 binding assay.

Where two headings read alike, the source gives them in different places. Marks after values point to notes of the source that are not given here. Non-standard residues stand in square brackets, D forms with d. Residues, ends and D or L forms follow the SMILES beside them. Trp(6-Cl) = N[C@@H](Cc1c[nH]c2cc(Cl)ccc12)C(=O)O; Pmp = N[C@@H](Cc1ccc(CP(=O)(O)O)cc1)C(=O)O; Ac3c = NC1(C(=O)O)CC1; Aib = CC(C)(N)C(=O)O

T1 sequence (Q00987 whole entry): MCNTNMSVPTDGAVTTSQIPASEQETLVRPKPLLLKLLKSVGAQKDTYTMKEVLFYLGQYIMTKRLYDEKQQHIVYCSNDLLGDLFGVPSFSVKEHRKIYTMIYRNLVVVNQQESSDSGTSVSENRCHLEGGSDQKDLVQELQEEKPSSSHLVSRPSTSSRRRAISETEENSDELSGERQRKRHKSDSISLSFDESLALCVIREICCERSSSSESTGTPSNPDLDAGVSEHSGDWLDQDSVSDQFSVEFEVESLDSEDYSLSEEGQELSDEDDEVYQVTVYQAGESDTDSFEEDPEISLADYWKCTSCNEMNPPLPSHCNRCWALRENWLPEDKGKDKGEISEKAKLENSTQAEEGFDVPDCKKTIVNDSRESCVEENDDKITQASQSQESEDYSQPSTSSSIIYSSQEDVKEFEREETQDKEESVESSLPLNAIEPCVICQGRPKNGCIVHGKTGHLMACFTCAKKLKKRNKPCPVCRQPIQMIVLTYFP

The term IC50 denotes the concentration that gives 50% inhibition. As for `O=S(=O)(Nc1ccc(F)cc1)c1cc(Br)c(Cl)s1` [Compound 4, 4-Bromo-5-chlorothiophene-2-sulfonic acid (4-fluorophenyl)amide], in data set [1] (setting [4]), the IC50 was found to be 378 µM. Further, the IC50 in data set [1] (setting [5]) is 378 µM. Further, in data set [2], the “Fold induction of luciferase activity” value is recorded as <2 fold and the “Concentration (test compound concentration at which the p53 induction was maximal)” value (from here on “Concentration”) was 100^e μM. Turning to `CC(=O)Sc1sc(S(=O)(=O)Nc2ccc(Cl)cc2)cc1[N+](=O)[O-]` [Compound 72, Thioacetic acid S-[5-(4-chloro-phenylsulfamoyl)-3-nitro-thiophen-2-yl] ester], the IC50 in data set [1] (setting [5]) was determined as 16.2 µM; in data set [3] it was 61 µM. Turning to `O=S(=O)(Nc1cc(Cl)cc(Cl)c1)c1cc(Cl)c(O)c(Cl)c1` [Compound 101, 3,5-Dichloro-N-(3,5-dichloro-phenyl)-4-hydroxy-benzenesulfonamide], the IC50 in data set [1] (setting [5]) came out at 299 ± 31 µM. The same measure, in the same setting: to `Nc1ccc(S(=O)(=O)Nc2ccc(Cl)cc2)cc1Cl` [Compound 102, 4-Amino-3-chloro-N-(4-chloro-phenyl)-benzenesulfonamide] belongs 467 ± 35 µM; to `COc1ccc(S(=O)(=O)Nc2ccc(Cl)cc2)cc1Cl` [Compound 103, 3-Chloro-N-(4-chloro-phenyl)-4-methoxy-benzenesulfonamide], 408 ± 18 µM. Consider `COc1ccc(S(=O)(=O)Nc2cc(C(F)(F)F)cc(C(F)(F)F)c2)cc1Cl` [Compound 104, N-(3,5-Bis-trifluoromethyl-phenyl)-3-chloro-4-methoxy-benzene-sulfonamide], for which the IC50 in data set [1] (setting [5]) was found to be 151 ± 26 µM; in data set [3], 25 µM. Turning to `CC(=O)N1CCN(c2cc(S(=O)(=O)Nc3cc(C(F)(F)F)cc(C(F)(F)F)c3)ccc2[N+](=O)[O-])CC1` [Compound 106, 3-(4-Acetyl-piperazin-1-yl)-N-(3,5-bis-trifluoromethyl-phenyl)-4-nitro-benzenesulfonamide], the IC50 in data set [1] (setting [5]) was 241 ± 158 µM. Take `O=[N+]([O-])c1ccccc1S(=O)(=O)Nc1cc(C(F)(F)F)cc(C(F)(F)F)c1` [Compound 107, N-(3,5-Bis-trifluoromethyl-phenyl)-2-nitro-benzenesulfonamide]: the IC50 in data set [1] (setting [5]) worked out at 401 ± 46 µM. Regarding `O=C(O)c1cccc(S(=O)(=O)Nc2cc(C(F)(F)F)cc(C(F)(F)F)c2)c1` [Compound 108, 3-(3,5-Bis-trifluoromethyl-phenylsulfamoyl)-benzoic acid], the IC50 in data set [1] (setting [5]) turned out to be 451 ± 118 µM. `O=S(=O)(NCc1ccc(Cl)cc1)c1cc(Cl)c(O)c(Cl)c1` [Compound 109, 3,5-Dichloro-N-(4-chloro-benzyl)-4-hydroxy-benzenesulfonamide]: the IC50 in data set [1] (setting [5]) is 375 ± 41 µM. `O=S(=O)(NCc1ccc(C(F)(F)F)cc1)c1cc(Cl)c(O)c(Cl)c1` [Compound 110, 3,5-Dichloro-4-hydroxy-N-(4-trifluoromethyl-benzyl)-benzenesulfonamide]: the IC50 in data set [1] (setting [5]) amounted to 242 µM. On to `O=S(=O)(NCCc1c[nH]c2ccccc12)c1cc(Cl)c(O)c(Cl)c1` [Compound 111, 3,5-Dichloro-4-hydroxy-N-[2-(1H-indol-3-yl)-ethyl]-benzenesulfonamide], for which the IC50 in data set [1] (setting [5]) came to 448 µM. On to `O=S(=O)(Nc1cc(Cl)cc(Cl)c1)c1cc(Br)c(Br)s1` [Compound 112, 4,5-Dibromo-thiophene-2-sulfonic acid (3,5-dichloro-phenyl)-amide], for which the IC50 in data set [1] (setting [5]) was determined as 194 µM. Still for that read-out and setting: for `O=S(=O)(Nc1cc(Cl)cc(Cl)c1)c1ccc(-c2ncco2)cc1` [Compound 113, N-(3,5-Dichloro-phenyl)-4-oxazol-2-yl-benzenesulfonamide] the value was 246 µM; for `O=S(=O)(Nc1cc(C(F)(F)F)cc(C(F)(F)F)c1)c1cc(Br)c(Cl)s1` [Compound 114, 4-Bromo-5-chloro-thiophene-2-sulfonic acid (3,5-bis-trifluoromethyl-phenyl)-amide], 293 µM. Same read-out and setting: to `O=S(=O)(Nc1cc(Cl)cc(Cl)c1)c1cc(Br)c(Cl)s1` [Compound 115, 4-Bromo-5-chloro-thiophene-2-sulfonic acid (3,5-dichloro-phenyl)-amide] belongs 431 µM; to `O=S(=O)(Nc1ccc(C(F)(F)F)cc1)c1ccc(Br)s1` [Compound 116, 5-Bromo-thiophene-2-sulfonic acid (4-trifluoromethyl-phenyl)-amide], 152 µM; to `O=S(=O)(Nc1cc(C(F)(F)F)cc(C(F)(F)F)c1)c1ccc(S(=O)(=O)c2ccccc2)s1` [Compound 117, 5-Benzenesulfonyl-thiophene-2-sulfonic acid (3,5-bis-trifluoromethyl-phenyl)-amide], 147 µM. Turning to `O=S(=O)(Nc1ccc(Cl)cc1Cl)c1ccc(S(=O)(=O)c2ccccc2)s1` [Compound 118, 5-Benzenesulfonyl-thiophene-2-sulfonic acid (2,4-dichloro-phenyl)-amide], in data set [1] (setting [5]), the IC50 turned out to be 305 µM. On the same count and under the same terms, to `Cc1c(S(=O)(=O)Nc2cc(C(F)(F)F)cc(C(F)(F)F)c2)sc2ccc(Cl)cc12` [Compound 119, 5-Chloro-3-methyl-benzo[b]thiophene-2-sulfonic acid (3,5-bis-trifluoromethyl-phenyl)-amide] belongs 106 ± 13 µM; to `O=S(=O)(Nc1cc(C(F)(F)F)cc(C(F)(F)F)c1)c1cc2ccccc2s1` [Compound 120, Benzo[b]thiophene-2-sulfonic acid (3,5-bis-trifluoromethyl-phenyl)-amide], 193 ± 12 µM; to `O=S(=O)(Nc1ccc(Cl)cc1)c1ccc2nsnc2c1` [Compound 121, Benzo[1,2,5]thiadiazole-5-sulfonic acid (4-chloro-phenyl)-amide], 314 ± 29 µM.

Take `O=S(=O)(Nc1cc(C(F)(F)F)cc(C(F)(F)F)c1)c1ccc2nsnc2c1` [Compound 122, Benzo[1,2,5]thiadiazole-5-sulfonic acid (3,5-bis-trifluoromethyl-phenyl)-amide]: the IC50 in data set [1] (setting [5]) came to 165 ± 8 µM. `O=S(=O)(Nc1ccc(C(F)(F)F)cc1)c1ccc2nsnc2c1` [Compound 123, Benzo[1,2,5]thiadiazole-5-sulfonic acid (4-trifluoromethyl-phenyl)-amide]: the IC50 in data set [1] (setting [5]) is 329 ± 42 µM. Same read-out and setting: for `O=S(=O)(Nc1cc(C(F)(F)F)cc(C(F)(F)F)c1)c1ccc(-c2ccccn2)s1` [Compound 124, 5-Pyridin-2-yl-thiophene-2-sulfonic acid (3,5-bis-trifluoromethyl-phenyl)-amide] the value was 265 ± 64 µM; for `O=S(=O)(Nc1ccc(Cl)cc1)c1cc(Br)c(Br)s1` [Compound 125, 4,5-Dibromo-thiophene-2-sulfonic acid (4-chloro-phenyl)-amide], 198 ± 17 µM. In the case of `O=S(=O)(Nc1ccc(C(F)(F)F)cc1)c1cc(Br)c(Br)s1` [Compound 126, 4,5-Dibromo-thiophene-2-sulfonic acid (4-trifluoromethyl-phenyl)-amide], the 50% inhibitory concentration (IC50) in data set [1] (setting [5]) worked out at 163 ± 27 µM.

Consider `O=S(=O)(NCc1ccc(F)cc1)c1cc(Cl)c(O)c(Cl)c1` [Compound 127, 3,5-Dichloro-N-(4-fluoro-benzyl)-4-hydroxy-benzenesulfonamide], for which the half-maximal inhibitory concentration (IC50) in data set [1] (setting [5]) was determined as 325 ± 24 µM. Turning to `O=S(=O)(Nc1cc(C(F)(F)F)cc(C(F)(F)F)c1)c1c(Cl)cccc1Cl` [Compound 128, N-(3,5-Bis-trifluoromethyl-phenyl)-2,6-dichloro-benzenesulfonamide], the IC50 in data set [1] (setting [5]) was determined as 134 ± 28 µM; in data set [3], 53 µM. Regarding `COc1ccc(NS(=O)(=O)c2cc([N+](=O)[O-])c(Cl)s2)c(C)c1` [Compound 129, 5-Chloro-4-nitro-thiophene-2-sulfonic acid (4-methoxy-2-methyl-phenyl)-amide], the half-inhibitory concentration (IC50) in data set [1] (setting [4]) is 278 ± 19 µM. Besides, the half-maximal inhibitory concentration (IC50) in data set [1] (setting [5]) came out at 278 ± 19 µM. Besides, in data set [2], the “Fold induction of luciferase activity” value turned out to be 5 fold and the “Concentration” value is 100 µM.

For the compound `O=[N+]([O-])c1cc(S(=O)(=O)Nc2ccc(Cl)cc2)sc1N1CCCC(O)C1` (centres unmarked) [Compound 130, 5-(3-Hydroxy-piperidin-1-yl)-4-nitro-thiophene-2-sulfonic acid (4-chloro-phenyl)-amide], the IC50 in data set [1] (setting [5]) was determined as 64 ± 1 µM. On the same count and under the same terms, to `O=[N+]([O-])c1ccc(NS(=O)(=O)c2cc([N+](=O)[O-])c(Cl)s2)cc1` [Compound 131, 5-Chloro-4-nitro-thiophene-2-sulfonic acid (4-nitro-phenyl)-amide] belongs 41 ± 4 µM. Compound `CSCC[C@H](NC(=O)[C@@H](N)Cc1ccccc1)C(=O)NC(C)(C)C(=O)N[C@@H](Cc1ccc(CP(=O)(O)O)cc1)C(=O)N[C@@H](Cc1c[nH]c2cc(Cl)ccc12)C(=O)N[C@@H](CCC(=O)O)C(=O)NC1(C(=O)N[C@@H](CC(C)C)C(N)=O)CC1` [Control, H-Phe-Met-Aib-Pmp-(6-Cl-Trp)-Glu-Ac3c-Leu-NH2, reference compound] (H-FM[Aib][Pmp][Trp(6-Cl)]E[Ac3c]L-NH2) registered an IC50 in data set [1] (In vitro competitive HDM2 binding assay IC50, fluorescence polarisation assay, Table 3) of 0.19 µM. Further, in data set [2], the “Fold induction of luciferase activity” value is reported as 4 fold and the “Concentration” value lay within 150 to 200 µM.
